From paper PMC10689823, “Discovery of a Drug-like, Natural Product-Inspired DCAF11 Ligand Chemotype” (Nature Communications, 2023)

Target: BRD4S-TagBFP reporter (Homo sapiens, UniProt O60885)
Assay: FACS-based CRISPR/Cas9 BRD4 protein stability screen
Protocol: The virus containing supernatant was cleared of cellular debris by filtration through a 0.45-µm PES filter and used to transduce KBM7 BRD4-BFP reporter cells harboring a doxycycline inducible Cas9 allele at a multiplicity of infection (MOI) of 0.05 and 1,000-fold library representation. Library-transduced cells were selected with G418 (1 mg ml^−1, Gibco) for 14 days, expanded and Cas9 expression was induced with DOX (0.4 µg ml^−1, PanReac AppliChem).
Cells were washed with and stored in FACS buffer (PBS containing 5% FBS and 1 mM EDTA) at 4 °C overnight. The next day, cells were strained trough a 35 µm nylon mesh and sorted on a BD FACSAria™ Fusion (BD Biosciences) using a 85 µm nozzle. Aggregates, dead (ZombieNIR positive), Cas9-negative (GFP) and sgRNA library-negative (Thy1.1-APC) cells were excluded, and the remaining cells were sorted based on their BRD4-BFP and mCherry levels into BRD4^HIGH (10% of cells), BRD4^MID (30%) and BRD4^LOW (10%) fractions. For each sample, cells corresponding to at least 2,000-fold library representation were sorted per replicate.
Next-generation sequencing (NGS) libraries of sorted cell fractions were prepared as previously described[25]. In brief, genomic DNA was isolated by cell lysis (10 mM Tris-HCl, 150 mM NaCl, 10 mM EDTA, 0.1% SDS), proteinase K treatment (New England Biolabs) and DNAse-free RNAse digest (Thermo Fisher Scientific), followed by two rounds of phenol extraction and 2-propanol precipitation. Isolated genomic DNA was subjected to several freeze–thaw cycles before nested polymerase chain reaction (PCR) amplification of the sgRNA cassette.
Barcoded NGS libraries for each sorted population were generated using a two-step PCR protocol using AmpliTaq Gold (Invitrogen). The resulting PCR products were purified using Mag-Bind® TotalPure NGS beads (Omega Bio-tek) and amplified in a second PCR introducing the standard Illumina adapters. The final Illumina libraries were bead-purified, pooled and sequenced on a HiSeq 3500 platform (Illumina).
Screen analysis was performed as previously described[25]. Briefly, sequencing reads were quantified using the crispr-process-nf Nextflow workflow, available at https://github.com/ZuberLab/crispr-process-nf/tree/566f6d46bbcc2a3f49f51bbc96b9820f408ec4a3. For statistical analysis, we used the crispr-mageck-nf Nextflow workflow, available at https://github.com/ZuberLab/crispr-mageck-nf/tree/c75a90f670698bfa78bfd8be786d6e5d6d4fc455. To calculate gene-level enrichment, the sorted populations (BRD4^HIGH or BRD4^LOW) were compared to the BRD4^MID populations in MAGeCK (0.5.9)[46], using median normalized read counts.

Low_lfc (Gene FBXL18, Mageck_Gene level): 0.15 | Low_logP (Gene FBXL18, Mageck_Gene level): 0.58 | High_lfc (Gene FBXL19, Mageck_Gene level): -0.07 | High_logP (Gene FBXL19, Mageck_Gene level): 0.17 | Low_lfc (Gene FBXL19, Mageck_Gene level): 0.26 | Low_logP (Gene FBXL19, Mageck_Gene level): 0.97 | High_lfc (Gene FBXL20, Mageck_Gene level): 0.09 | High_logP (Gene FBXL20, Mageck_Gene level): 0.36 | Low_lfc (Gene FBXL20, Mageck_Gene level): -0.03 | Low_logP (Gene FBXL20, Mageck_Gene level): 0.19 | High_lfc (Gene FBXL21, Mageck_Gene level): 0.06 | High_logP (Gene FBXL21, Mageck_Gene level): 0.36 | Low_lfc (Gene FBXL21, Mageck_Gene level): -0.13 | Low_logP (Gene FBXL21, Mageck_Gene level): 0.07 | High_lfc (Gene FBXL22, Mageck_Gene level): 0.4 | Low_lfc (Gene FBXL22, Mageck_Gene level): 0.39 | Low_logP (Gene FBXL22, Mageck_Gene level): 1.13 | High_lfc (Gene FBXO2, Mageck_Gene level): 0.07 | High_logP (Gene FBXO2, Mageck_Gene level): 0.12 | Low_lfc (Gene FBXO2, Mageck_Gene level): -0.12 | Low_logP (Gene FBXO2, Mageck_Gene level): 0.08 | High_lfc (Gene FBXO10, Mageck_Gene level): 0.07 | High_logP (Gene FBXO10, Mageck_Gene level): 0.21 | Low_lfc (Gene FBXO10, Mageck_Gene level): -0.41 | Low_logP (Gene FBXO10, Mageck_Gene level): 0.06 | High_lfc (Gene FBXO11, Mageck_Gene level): -0.62 | High_logP (Gene FBXO11, Mageck_Gene level): 0 | Low_lfc (Gene FBXO11, Mageck_Gene level): 0.03 | Low_logP (Gene FBXO11, Mageck_Gene level): 0.18 | High_lfc (Gene FBXO15, Mageck_Gene level): -0.25 | High_logP (Gene FBXO15, Mageck_Gene level): 0.04 | Low_lfc (Gene FBXO15, Mageck_Gene level): -0.28 | Low_logP (Gene FBXO15, Mageck_Gene level): 0.22 | High_lfc (Gene FBXO16, Mageck_Gene level): -0.06 | High_logP (Gene FBXO16, Mageck_Gene level): 0.3 | Low_lfc (Gene FBXO16, Mageck_Gene level): -0.09 | Low_logP (Gene FBXO16, Mageck_Gene level): 0.14 | High_lfc (Gene FBXO17, Mageck_Gene level): -0.2 | High_logP (Gene FBXO17, Mageck_Gene level): 0.06 | Low_lfc (Gene FBXO17, Mageck_Gene level): 0.03 | Low_logP (Gene FBXO17, Mageck_Gene level): 0.49 | High_lfc (Gene FBXO18, Mageck_Gene level): -0.14 | High_logP (Gene FBXO18, Mageck_Gene level): 0.12 | Low_lfc (Gene FBXO18, Mageck_Gene level): 0.16 | Low_logP (Gene FBXO18, Mageck_Gene level): 0.25 | High_lfc (Gene FBXO21, Mageck_Gene level): 0.22 | High_logP (Gene FBXO21, Mageck_Gene level): 0.42 | Low_lfc (Gene FBXO21, Mageck_Gene level): 0 | Low_logP (Gene FBXO21, Mageck_Gene level): 0.2 | High_lfc (Gene FBXO22, Mageck_Gene level): -0.12 | High_logP (Gene FBXO22, Mageck_Gene level): 0.02 | Low_lfc (Gene FBXO22, Mageck_Gene level): 0.34 | Low_logP (Gene FBXO22, Mageck_Gene level): 0.76 | High_lfc (Gene FBXO24, Mageck_Gene level): -0.07 | High_logP (Gene FBXO24, Mageck_Gene level): 0.15 | Low_lfc (Gene FBXO24, Mageck_Gene level): 0.03 | Low_logP (Gene FBXO24, Mageck_Gene level): 0.43 | High_lfc (Gene FBXO25, Mageck_Gene level): -0.22 | High_logP (Gene FBXO25, Mageck_Gene level): 0.18 | Low_lfc (Gene FBXO25, Mageck_Gene level): -0.04 | Low_logP (Gene FBXO25, Mageck_Gene level): 0.27 | High_lfc (Gene FBXO27, Mageck_Gene level): -0.12 | High_logP (Gene FBXO27, Mageck_Gene level): 0.16 | Low_lfc (Gene FBXO27, Mageck_Gene level): 0.09 | Low_logP (Gene FBXO27, Mageck_Gene level): 0.72 | High_lfc (Gene FBXO28, Mageck_Gene level): 0.16 | High_logP (Gene FBXO28, Mageck_Gene level): 0.49 | Low_lfc (Gene FBXO28, Mageck_Gene level): -0.29 | Low_logP (Gene FBXO28, Mageck_Gene level): 0.02 | High_lfc (Gene FBXO30, Mageck_Gene level): -0.1 | High_logP (Gene FBXO30, Mageck_Gene level): 0.16 | Low_lfc (Gene FBXO30, Mageck_Gene level): 0.12 | Low_logP (Gene FBXO30, Mageck_Gene level): 0.1 | High_lfc (Gene FBXO31, Mageck_Gene level): 0.04 | High_logP (Gene FBXO31, Mageck_Gene level): 0.36 | Low_lfc (Gene FBXO31, Mageck_Gene level): -0.01 | Low_logP (Gene FBXO31, Mageck_Gene level): 0.26 | High_lfc (Gene FBXO32, Mageck_Gene level): 0.06 | High_logP (Gene FBXO32, Mageck_Gene level): 0.08 | Low_lfc (Gene FBXO32, Mageck_Gene level): 0.38 | Low_logP (Gene FBXO32, Mageck_Gene level): 0.68 | High_lfc (Gene FBXO33, Mageck_Gene level): -0.54 | High_logP (Gene FBXO33, Mageck_Gene level): 0 | Low_lfc (Gene FBXO33, Mageck_Gene level): -0.07 | Low_logP (Gene FBXO33, Mageck_Gene level): 0.18 | High_lfc (Gene FBXO34, Mageck_Gene level): 0.15 | High_logP (Gene FBXO34, Mageck_Gene level): 0.29 | Low_lfc (Gene FBXO34, Mageck_Gene level): -0.13 | Low_logP (Gene FBXO34, Mageck_Gene level): 0.33 | High_lfc (Gene FBXO36, Mageck_Gene level): -0.26 | High_logP (Gene FBXO36, Mageck_Gene level): 0.21 | Low_lfc (Gene FBXO36, Mageck_Gene level): 0.2 | Low_logP (Gene FBXO36, Mageck_Gene level): 0.47 | High_lfc (Gene FBXO38, Mageck_Gene level): -0.33 | High_logP (Gene FBXO38, Mageck_Gene level): 0.02 | Low_lfc (Gene FBXO38, Mageck_Gene level): 0.01 | Low_logP (Gene FBXO38, Mageck_Gene level): 0.38 | High_lfc (Gene FBXO39, Mageck_Gene level): 0.06 | High_logP (Gene FBXO39, Mageck_Gene level): 0.22 | Low_lfc (Gene FBXO39, Mageck_Gene level): 0.01 | Low_logP (Gene FBXO39, Mageck_Gene level): 0.18 | CRL substrate receptor scoring as top hit (gene required for BRD4 degradation) (KBM7 BRD4-BFP reporter cells, 9 0.5 µM, 10 1 µM, dBET6 10 nM, 6 hours): DCAF11 | High_lfc (gene FBXO3): 0.34 | High_logP (gene FBXO3): 0.33 | Low_lfc (gene FBXO3): -0.08 | Low_logP (gene FBXO3): 0.04 | High_lfc (gene FBXO4): 0.05 | High_logP (gene FBXO4): 0.31 | Low_lfc (gene FBXO4): -0.07 | Low_logP (gene FBXO4): 0.01 | High_lfc (gene FBXO5): 0.23 | High_logP (gene FBXO5): 0.83 | Low_lfc (gene FBXO5): -0.27 | Low_logP (gene FBXO5): 0.05 | High_lfc (gene FBXO6): -0.06 | High_logP (gene FBXO6): 0.34 | Low_lfc (gene FBXO6): -0.26 | Low_logP (gene FBXO6): 0.15 | High_lfc (gene FBXO7): -0.21 | High_logP (gene FBXO7): 0 | Low_lfc (gene FBXO7): -0.1 | Low_logP (gene FBXO7): 0.14 | High_lfc (gene FBXO8): -0.41 | High_logP (gene FBXO8): 0.01 | Low_lfc (gene FBXO8): -0.3 | Low_logP (gene FBXO8): 0.02 | High_lfc (gene FBXO9): -0.11 | High_logP (gene FBXO9): 0.02 | Low_lfc (gene FBXO9): -0.13 | Low_logP (gene FBXO9): 0.09 | High_lfc (gene FBXO40): -0.14 | High_logP (gene FBXO40): 0.09 | Low_lfc (gene FBXO40): -0.23 | Low_logP (gene FBXO40): 0.3 | High_lfc (gene FBXO41): 0.03 | High_logP (gene FBXO41): 0.17 | Low_lfc (gene FBXO41): -0.11 | Low_logP (gene FBXO41): 0.05 | High_lfc (gene FBXO42): 0.02 | High_logP (gene FBXO42): 0.05 | Low_lfc (gene FBXO42): 0.34 | Low_logP (gene FBXO42): 1.46 | High_lfc (gene FBXO43): -0.17 | High_logP (gene FBXO43): 0.11 | Low_lfc (gene FBXO43): -0.15 | Low_logP (gene FBXO43): 0.08 | High_lfc (gene FBXO44): -0.16 | High_logP (gene FBXO44): 0.39 | Low_lfc (gene FBXO44): -0.37 | Low_logP (gene FBXO44): 0.19 | High_lfc (gene FBXO45): -0.07 | High_logP (gene FBXO45): 0.11 | Low_lfc (gene FBXO45): -0.31 | Low_logP (gene FBXO45): 0.11 | High_lfc (gene FBXO46): -0.12 | High_logP (gene FBXO46): 0.12 | Low_lfc (gene FBXO46): 0.18 | Low_logP (gene FBXO46): 0.84 | High_lfc (gene FBXO47): 0.35 | High_logP (gene FBXO47): 0.59 | Low_lfc (gene FBXO47): 0.65 | Low_logP (gene FBXO47): 1.14 | High_lfc (gene FBXO48): -0.14 | High_logP (gene FBXO48): 0.09 | Low_lfc (gene FBXO48): -0.68 | Low_logP (gene FBXO48): 0.01 | High_lfc (gene FBXW2): -0.16 | High_logP (gene FBXW2): 0.05 | Low_lfc (gene FBXW2): -0.15 | Low_logP (gene FBXW2): 0.23 | High_lfc (gene FBXW4): -0.23 | High_logP (gene FBXW4): 0.02 | Low_lfc (gene FBXW4): 0.1 | Low_logP (gene FBXW4): 0.3 | High_lfc (gene FBXW5): -0.14 | High_logP (gene FBXW5): 0.29 | Low_lfc (gene FBXW5): 0.04 | Low_logP (gene FBXW5): 0.25 | High_lfc (gene FBXW7): 0.42 | High_logP (gene FBXW7): 1.76 | Low_lfc (gene FBXW7): 0.03 | Low_logP (gene FBXW7): 0.22 | High_lfc (gene FBXW8): -0.01 | High_logP (gene FBXW8): 0.23 | Low_lfc (gene FBXW8): 0.37 | Low_logP (gene FBXW8): 0.66 | High_logP (gene FBXW9): 0.71 | Low_logP (gene FBXW9): 1.01 | High_lfc (gene FBXW10): -0.01 | High_logP (gene FBXW10): 0.15 | Low_lfc (gene FBXW10): -0.13 | Low_logP (gene FBXW10): 0.01 | High_lfc (gene FBXW11): -0.15 | High_logP (gene FBXW11): 0.05 | Low_lfc (gene FBXW11): -0.16 | Low_logP (gene FBXW11): 0.14 | High_lfc (gene FBXW12): -0.01 | High_logP (gene FBXW12): 0.11 | Low_lfc (gene FBXW12): 0.06 | Low_logP (gene FBXW12): 0.36 | High_logP (gene FEM1A): 0.33
SMILES: Cc1sc2c(c1C)C(c1ccc(Cl)cc1)=NC(CC(=O)NCCOCCOCCOCCOc1c(Br)cc(C=C3C(=O)Nc4ccc(Br)cc43)cc1Br)c1nnc(C)n1-2 (stereo not drawn) [Compound 10]
